Source: paper PMC9477273 (2022)

System: biosensor 566229815 (RNA, ribozyme) GGGAAACAAACAAAGCUGUCACUGGAUUUCUUGACGAAUGUGCAGGAAACGGCUCCGGUCUGAUGAGUUCGUGGCGGGACGAAACAGCAAAAAGAAAAA
Test: CleaveSeq ribozyme cleavage, deconvolution of 256-compound mixtures
Conditions: sub-mM free Mg2+ (chelated by 9 mM rNTPs); 2 μM each compound in mixtures; ligand inferred ("highly likely"); 37 °C

- fold change of cleavage: > 2 fold
SMILES: C=CC[n+]1c(C=C2C=CC=CN2C)sc2ccccc21
